According to patent publication US11655297B2, “ILDR2 antagonists and combinations thereof” (Bayer Aktiengesellschaft, priority 2017, dated 2023):

Experiments:
B16F10 OVA tumor model = assay: B16F10 OVA model, combination with OVA vaccine and CpG oligo; type: in vivo, mouse; details: for Mean tumor size: BAY 1905254 10 mg/kg i.p. q3d×3 starting day 8, 50 μg OVA + 10 μg CPG s.c. on day 9
Experimental: 50 μg OVA (in 50 μl)+10 μg CPG (in 10 μl)+140 μl PBS=200 μl/mouse was applied subcutaneously to the left flank adjacent to the tumor, on day 9. The CpG oligonucleotide was ODN 1826 (5′-[…]-3′; bases are phosphorothioate/nuclease resistant) that is specific for mouse TLR9 was used (Invivogen MA-1826-5).

[1] = test system: CT26 syngeneic mouse model; assay: Tumor shrinking activity in CT26 syngeneic mouse model (FIG. 9C)
Experimental: FIG. 9C: Tumor shrinking activity of selected anti ILDR2 antibodies according to the present invention in a CT26 syngeneic mouse model. Tumor shrinking activity is measured as decrease of tumor volume, relative to an Isotype control.

3C9-D11-H11 tumor model = assay: 3C9-D11-H11 therapeutic, combination with aPD-L1; type: in vivo, mouse
Excerpt: (§1) The following syngeneic tumor models were subcutaneously used in in vivo experiments: B16-F10 cells represent a mouse melanoma cell line derived from the skin of C57BL/6J mice. CT26 is an N-nitroso-N-methylurethane-(NNMU) induced, undifferentiated colon carcinoma cell line. It is a fibroblast cell type and derives from BALB/c mice. 3C9-D11-H11 cells are hybridoma B lymphocytes generated by fusion of spleen cells with Sp2/0-Ag14 myeloma cells. The spleen cells derive from BALB/c mice that were immunized with purified porcine parvovirus (PPV).

B16F10 tumor model = assay: B16-F10 preventive treatment, syngeneic tumor model; type: in vivo, mouse; details: for Mean tumor size: 10 mg/kg i.p. q3d×6 from tumor inoculation
Excerpt: as §1

CT26 C4.4a tumor model = assay: CT26 C4.4a model, combination with C4.4A ADC; type: in vivo, mouse; details: for Mean tumor size: BAY 1905254 10 mg/kg i.p. q3d×5, C4.4A ADC 10 mg/kg i.v. q4d×3, starting day 6
Experimental: This model is a derivative of the parental CT26 model expressing murine C4.4a on the surface of the tumor cells.
C4.4A ADC (antibody-drug conjugate BAY1129980), which is composed of an antibody against a structural homolog of the urokinase-type plasminogen activator receptor (uPAR) and tumor-associated antigen, C4.4a, and conjugated with a cytotoxic agent, was dosed 10 mg/kg i.v. q4d×3, starting day 6.

CT26 tumor model = assay: CT26 therapeutic, combination with aPD-L1; type: in vivo, mouse; details: aPD-L1 10 mg/kg
Excerpt: as §1

[2] = test system: IL-2 secretion of CD4 T cells co-cultured with M-CSF mature monocytes; assay: Mixed lymphocyte reaction (MLR), antibody-evoked IL-2 secretion by Elisa; type: cell-based
Experimental: To determine the effect of these antibodies on ILDR2 function an immunomodulation assay was carried out, namely a mixed lymphocyte reaction assay. The mixed lymphocyte reaction (MLR) is a test in which populations of lymphocytes are mixed together, and the resulting reactions are measured. Technically, it is an ex-vivo cellular immune assay that occurs between two allogeneic lymphocyte populations. In a one-way MLR, only one lymphocyte population can respond or proliferate. In a two-way MLR, both populations can proliferate. MLR's are performed to assess how T cells react to external stimuli, e.g., exposure to immune checkpoint inhibitors, like anti PD-1 antibodies (Wang et al 2014) and anti-PD-L1 antibodies. In the present context, antibody-evoked IL-2 secretion was measured with this assay.
In the present case, CD4 T cells from one donor were co-cultured with M-CSF mature monocytes from another donor in the presence of various ILDR2 antibodies, a function-blocking PD-L1 antibody or an isotype control for 5 days. […] Results are shown in FIG. 9B and the following table 3.

B16-F10 tumor model = assay: B16-F10 therapeutic treatment, combination with aPD-L1; type: in vivo, mouse
Excerpt: as §1

[3] = test system: B16F10 syngeneic mouse model; assay: Tumor shrinking activity in B16F10 syngeneic mouse model (FIG. 9A); type: in vivo
Experimental: Tumor shrinking activity is measured as decrease of tumor volume, relative to an isotype control.
To determine the anti-tumor efficacy, such as for example, the tumor shrinking effect of the respective binders, two syngeneic mouse models (B16F10, CT26) were used as discussed above.

B16-F10 OVA tumor model = assay: B16-F10 OVA model, combination with Docetaxel; details: for tumor size of the treatment group vs. Control (T/C): B16-F10 OVA, BAY 1905254 10 mg/kg i.p. q3d×3, Docetaxel once 20 mg/kg i.v.; for Mean tumor size: BAY 1905254 10 mg/kg i.p. q3d×3 starting day 8, Docetaxel once 20 mg/kg i.v. on day 8
Experimental: Eight weeks old female C57B1/6N Cr1 BR mice (body weight 18-20 g) from Charles River Deutschland, Sulzfeld were used for the B16-F10 OVA tumor model. The model is a derivative of the B16F10 cell line expressing the allo-antigen ovalbumin which can be recognized by antigen-specific T cells. The experiment was initiated after an acclimatization period of 5 days. Animals were kept in a 12-hour light/dark cycle. Food and water was available ad libitum. Housing temperature was maintained at 21° C. Mice (n=12 per group) were s.c. inoculated with 1×10^4 B16F10 OVA tumor cells into the left flank and assigned to experimental groups. At treatment initiation, animals were marked and each cage was labeled with the cage number, study number and the number of animals per cage.
Agents were dosed i.p. at 10 mg/kg q3d×3, starting day 8.

In the case of “BAY1905254: anti ILDR2 antibody, heavy chain SEQ ID NO:42, light chain SEQ ID NO:43”, the “tumor size of the treatment group vs. Control (T/C)” value (B16F10 OVA tumor model; B16F10 OVA, BAY 1905254 10 mg/kg i.p. q3d×3, OVA + CPG s.c. once) is reported as 0.66, the “tumor growth vs. isotype control (in words)” value (B16F10 OVA tumor model; B16F10 OVA, BAY1905254 10 mg/kg q3d i.p., OVA and CPG, 2 way ANOVA) is reported as “moderate delay of tumor growth” and the Mean tumor size (B16F10 OVA tumor model; day 9 post inoculation) is reported as 66.09 mm3. The Mean tumor size (B16F10 OVA tumor model; day 11 post inoculation) was 137.52 mm3, the Mean tumor size (B16F10 OVA tumor model; day 14 post inoculation) was 314.75 mm3 and the Mean tumor size (B16F10 OVA tumor model; day 16 post inoculation) was 483.38 mm3. The Mean tumor size (B16F10 OVA tumor model; day 18 post inoculation) was 711.93 mm3, the “anti-tumor activity in an in vivo tumor model compared with anti PD-L1 antibody (in words)” value [1] was “comparable to that of an anti PD-L1 antibody” and the “tumor size of the treatment group vs. isotype control (T/C)” value (3C9-D11-H11 tumor model; 3C9-D11-H11, 10 mg/kg i.p. q3d×5 starting d8) was 0.87. For the same compound, the “tumor growth vs. isotype control (in words)” value (3C9-D11-H11 tumor model; 3C9-D11-H11, 10 mg/kg q3d i.p. from d8, 2 way ANOVA) was “not the case”, the Mean tumor size (3C9-D11-H11 tumor model; day 7 post inoculation, 10 mg/kg i.p. q3d×5 starting d8) was 63.28 mm3 and the Mean tumor size (3C9-D11-H11 tumor model; day 10 post inoculation, 10 mg/kg i.p. q3d×5 starting d8) was 67.18 mm3. For the same compound, the Mean tumor size (3C9-D11-H11 tumor model; day 14 post inoculation, 10 mg/kg i.p. q3d×5 starting d8) was 198.87 mm3, the Mean tumor size (3C9-D11-H11 tumor model; day 16 post inoculation, 10 mg/kg i.p. q3d×5 starting d8) was 314.06 mm3 and the Mean tumor size (3C9-D11-H11 tumor model; day 18 post inoculation, 10 mg/kg i.p. q3d×5 starting d8) was 574.54 mm3. The Mean tumor size (3C9-D11-H11 tumor model; day 21 post inoculation, 10 mg/kg i.p. q3d×5 starting d8) was 1377.9 mm3, the “tumor size of the treatment group vs. isotype control (T/C)” value (B16F10 tumor model; B16-F10 preventive, 10 mg/kg i.p. q3d×6) was 0.63 and the “tumor growth vs. isotype control (in words)” value (B16F10 tumor model; B16F10, 10 mg/kg i.p., start of treatment d0, 2 way ANOVA) was “significantly delayed”. For the same compound, the Mean tumor size (B16F10 tumor model; day 3 post inoculation) was 34.5 mm3, the Mean tumor size (B16F10 tumor model; day 6 post inoculation) was 77.3 mm3 and the Mean tumor size (B16F10 tumor model; day 8 post inoculation) was 90.1 mm3. The Mean tumor size (B16F10 tumor model; day 11 post inoculation) was 286.8 mm3, the Mean tumor size (B16F10 tumor model; day 13 post inoculation) was 389.2 mm3 and the Mean tumor size (B16F10 tumor model; day 15 post inoculation) was 1059.9 mm3. The Mean tumor size (B16F10 tumor model; day 17 post inoculation) was 1204 mm3, the “tumor size of the treatment group vs. Control (T/C)” value (CT26 C4.4a tumor model; CT26 C4.4a, BAY 1905254 10 mg/kg i.p. q3d×5, C4.4A ADC 10 mg/kg i.v. q4d×3) was 1.13 and the “tumor growth vs. isotype control (in words)” value (CT26 C4.4a tumor model; FIG. 8, BAY1905254 10 mg/kg i.p., C4.4A ADC 10 mg/kg i.v., from d6, 2 way ANOVA) was “does not lead to a delay in tumor growth”. For the same compound, the Mean tumor size (CT26 C4.4a tumor model; day 6 post inoculation) was 56.89 mm3, the Mean tumor size (CT26 C4.4a tumor model; day 10 post inoculation) was 141.28 mm3 and the Mean tumor size (CT26 C4.4a tumor model; day 12 post inoculation) was 220.99 mm3. The Mean tumor size (CT26 C4.4a tumor model; day 14 post inoculation) was 260.95 mm3, the Mean tumor size (CT26 C4.4a tumor model; day 17 post inoculation) was 566.58 mm3 and the Mean tumor size (CT26 C4.4a tumor model; day 19 post inoculation) was 706.01 mm3. For the same compound, the “tumor size of the treatment group vs. isotype control (T/C)” value (CT26 tumor model; CT26, BAY1905254 3 mg/kg i.p. q3d×3 starting d7) was 0.95, the “tumor growth vs. isotype control (in words)” value (CT26 tumor model; CT26, BAY1905254 3 mg/kg q3d i.p. from d7, 2 way ANOVA) was “no delay of tumor growth” and the Mean tumor size (CT26 tumor model; day 7 post inoculation, BAY1905254 3 mg/kg i.p. q3d×3 starting d7) was 136.38 mm3. The Mean tumor size (CT26 tumor model; day 10 post inoculation, BAY1905254 3 mg/kg i.p. q3d×3 starting d7) was 227.41 mm3, the Mean tumor size (CT26 tumor model; day 13 post inoculation, BAY1905254 3 mg/kg i.p. q3d×3 starting d7) was 367.22 mm3 and the Mean tumor size (CT26 tumor model; day 15 post inoculation, BAY1905254 3 mg/kg i.p. q3d×3 starting d7) was 576.28 mm3. For the same compound, the “IL2 concentration (% over isotype control)” value ([2]; MLR, 5 days, supernatant Elisa) was 91 +/− 11%, the “IL-2 secretion / cytokine induction in MLR (in words)” value ([2]; vs isotype control or anti PD-L1 antibody) was “do not mediate IL-2 induction” and the “tumor growth vs. isotype control (in words)” value (B16-F10 tumor model; B16-F10 therapeutic, 10 mg/kg q3d i.p., 2 way ANOVA) was “No monotherapy efficacy”. The “tumor size of the treatment group vs. isotype control (T/C)” value (B16-F10 tumor model; B16-F10 therapeutic, 10 mg/kg i.p. q3d×5 starting d3) was 1.08, the Mean tumor size (B16-F10 tumor model; day 6 post inoculation, 10 mg/kg i.p. q3d×5 starting d3) was 76.07 mm3 and the Mean tumor size (B16-F10 tumor model; day 8 post inoculation, 10 mg/kg i.p. q3d×5 starting d3) was 80.52 mm3. The Mean tumor size (B16-F10 tumor model; day 10 post inoculation, 10 mg/kg i.p. q3d×5 starting d3) was 158.01 mm3, the Mean tumor size (B16-F10 tumor model; day 13 post inoculation, 10 mg/kg i.p. q3d×5 starting d3) was 479.92 mm3 and the Mean tumor size (B16-F10 tumor model; day 15 post inoculation, 10 mg/kg i.p. q3d×5 starting d3) was 986.99 mm3. For the same compound, the “tumor shrinkage measured against an isotype control (in words)” value [3] was “do”, the “tumor size of the treatment group vs. Control (T/C)” value (B16-F10 OVA tumor model) was 0.86 and the “tumor growth vs. isotype control (in words)” value (B16-F10 OVA tumor model; B16F10 OVA, BAY1905254 10 mg/kg q3d i.p., Docetaxel 20 mg/kg i.v. once, 2 way ANOVA) was “moderate delay of tumor growth”. The Mean tumor size (B16-F10 OVA tumor model; day 8 post inoculation) was 86.26 mm3, the Mean tumor size (B16-F10 OVA tumor model; day 11 post inoculation) was 97.06 mm3 and the Mean tumor size (B16-F10 OVA tumor model; day 14 post inoculation) was 207.75 mm3. For the same compound, the Mean tumor size (B16-F10 OVA tumor model; day 16 post inoculation) was 382.66 mm3.
For `CC(=O)O[C@@]12CO[C@@H]1C[C@H](O)[C@@]1(C)C(=O)[C@H](O)C3=C(C)[C@@H](OC(=O)[C@H](O)[C@@H](NC(=O)OC(C)(C)C)c4ccccc4)C[C@@](O)([C@@H](OC(=O)c4ccccc4)[C@H]21)C3(C)C` [Docetaxel, reference compound], the “tumor size of the treatment group vs. Control (T/C)” value (B16-F10 OVA tumor model) was 0.74, the Mean tumor size (B16-F10 OVA tumor model; day 8 post inoculation) was 86.56 mm3 and the Mean tumor size (B16-F10 OVA tumor model; day 11 post inoculation) was 100.78 mm3. The Mean tumor size (B16-F10 OVA tumor model; day 14 post inoculation) was 165.78 mm3 and the Mean tumor size (B16-F10 OVA tumor model; day 16 post inoculation) was 305.33 mm3.
